Results: the supplement of paper PMC11451515

Tested on: P12-Ichikawa
Test: cell viability relative to DMSO control; higher = less cytotoxic
Conditions: 48 h
Method in brief: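 Viability values are per-plate percentages of DMSO wells, with background from cell-free wells. Library compounds in DMSO were pin-dosed, in an 11-point threefold series from 47 μM to 0.79 nM, onto NOMO1 or SEM (500 cells/well) or P12-Ichikawa (1000 cells/well) leukemia cells in 1536-well plates (5 μl). Those cells had been adapted for at least four passages in each medium, and CellTiter-Glo One luminescence was read after 48 h at 37°C.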

[1] = HPLM + 10% dialyzed FBS, 0.000781 µM
[2] = HPLM + 10% dialyzed FBS, 0.00234 µM
[3] = HPLM + 10% dialyzed FBS, 0.00702 µM
[4] = HPLM + 10% dialyzed FBS, 0.0211 µM
[5] = HPLM + 10% dialyzed FBS, 0.0632 µM
[6] = HPLM + 10% dialyzed FBS, 0.19 µM
[7] = HPLM + 10% dialyzed FBS, 0.569 µM
[8] = HPLM + 10% dialyzed FBS, 1.71 µM
[9] = HPLM + 10% dialyzed FBS, 5.12 µM
[10] = HPLM + 10% dialyzed FBS, 15.4 µM
[11] = HPLM + 10% dialyzed FBS, 46.1 µM
[12] = RPMI 5 mM glucose + 10% FBS, 0.000781 µM
[13] = RPMI 5 mM glucose + 10% FBS, 0.00234 µM
[14] = RPMI 5 mM glucose + 10% FBS, 0.00702 µM
[15] = RPMI 5 mM glucose + 10% FBS, 0.0211 µM
[16] = RPMI 5 mM glucose + 10% FBS, 0.0632 µM
[17] = RPMI 5 mM glucose + 10% FBS, 0.19 µM
[18] = RPMI 5 mM glucose + 10% FBS, 0.569 µM
[19] = RPMI 5 mM glucose + 10% FBS, 1.71 µM
[20] = RPMI 5 mM glucose + 10% FBS, 5.12 µM
[21] = RPMI 5 mM glucose + 10% FBS, 15.4 µM
[22] = RPMI 5 mM glucose + 10% FBS, 46.1 µM
[23] = RPMI 5 mM glucose + 10% dialyzed FBS, 0.000781 µM
[24] = RPMI 5 mM glucose + 10% dialyzed FBS, 0.00234 µM
[25] = RPMI 5 mM glucose + 10% dialyzed FBS, 0.00702 µM
[26] = RPMI 5 mM glucose + 10% dialyzed FBS, 0.0211 µM
[27] = RPMI 5 mM glucose + 10% dialyzed FBS, 0.0632 µM
[28] = RPMI 5 mM glucose + 10% dialyzed FBS, 0.19 µM
[29] = RPMI 5 mM glucose + 10% dialyzed FBS, 0.569 µM
[30] = RPMI 5 mM glucose + 10% dialyzed FBS, 1.71 µM
[31] = RPMI 5 mM glucose + 10% dialyzed FBS, 5.12 µM
[32] = RPMI 5 mM glucose + 10% dialyzed FBS, 15.4 µM
[33] = RPMI 5 mM glucose + 10% dialyzed FBS, 46.1 µM

SMILES	cell viability [1]	cell viability [2]	cell viability [3]	cell viability [4]	cell viability [5]	cell viability [6]	cell viability [7]	cell viability [8]	cell viability [9]	cell viability [10]	cell viability [11]	cell viability [12]	cell viability [13]	cell viability [14]	cell viability [15]	cell viability [16]	cell viability [17]	cell viability [18]	cell viability [19]	cell viability [20]	cell viability [21]	cell viability [22]	cell viability [23]	cell viability [24]	cell viability [25]	cell viability [26]	cell viability [27]	cell viability [28]	cell viability [29]	cell viability [30]	cell viability [31]	cell viability [32]	cell viability [33]
CC/C(=C(\c1ccccc1)c1ccc(OCCN(C)C)cc1)c1ccccc1	102%	106%	102%	104%	95.8%	109%	104%	109%	113%	104%	86.3%	99.9%	102%	96.2%	118%	89.7%	102%	104%	99.4%	108%	100%	83.9%	113%	108%	113%	114%	95.3%	112%	117%	117%	104%	102%	76.9%
CN1CCN(c2cc(C(=O)Nc3ccc4c(c3)-c3c(c(C(N)=O)nn3-c3ccc(F)cc3)CC4)c(Cl)cn2)CC1	115%	109%	102%	114%	114%	107%	105%	98.1%	104%	95%	3.56%	113%	111%	116%	113%	109%	120%	107%	102%	103%	104%	12%	113%	107%	122%	111%	124%	109%	105%	100%	104%	102%	5.67%
Cc1nc(C(=O)NCC(=O)O)c(O)c2ccc(Oc3ccccc3)cc12	111%	97.3%	107%	105%	113%	91.4%	98.4%	99.5%	94.8%	102%	98.7%	107%	111%	115%	105%	110%	102%	110%	101%	103%	99.2%	85.5%	99.4%	101%	102%	104%	101%	98.8%	101%	94.8%	96.9%	93.6%	77%
Cc1nc(N)sc1-c1ccnc(Nc2ccc(N3CCOCC3)cc2)n1	97.4%	100%	108%	109%	112%	108%	111%	104%	19.4%	25%	43.8%	92.4%	107%	105%	107%	114%	113%	109%	116%	29.3%	24.6%	37.6%	97.6%	111%	112%	109%	112%	114%	112%	110%	35.4%	42%	38.5%
COC1=C(CC=C(C)C)C2=C(\C=C/C(=O)O2)C=C1	84.2%	109%	126%	121%	110%	114%	97.7%	87.5%	69.8%	65.7%	58.8%	96.9%	96.6%	116%	116%	106%	104%	107%	105%	80.1%	81.9%	54.7%	101%	123%	109%	112%	112%	109%	98.1%	92.4%	75.2%	76.3%	55.7%
COc1ccccc1N1CCN(CC(O)COc2cccc3ccccc23)CC1 (stereo unspecified)	119%	123%	127%	117%	125%	132%	116%	121%	120%	106%	109%	–	–	–	–	–	–	–	–	–	–	–	121%	123%	126%	117%	127%	125%	115%	109%	107%	90.4%	82.4%
Oc1ccc(-c2nc(-c3ccncc3)c(-c3ccc(F)cc3)[nH]2)cc1	115%	112%	118%	114%	124%	120%	130%	115%	64.3%	13%	5.07%	99.2%	99.7%	117%	111%	111%	126%	117%	115%	98.8%	60.7%	2.19%	103%	112%	113%	119%	123%	113%	130%	116%	82.7%	46%	6.46%
O=C1C(CCC(O)c2ccc(F)cc2)C(c2ccc(O)cc2)N1c1ccc(F)cc1 (stereo unspecified)	108%	112%	114%	116%	119%	124%	117%	117%	117%	120%	106%	114%	117%	123%	118%	122%	121%	126%	121%	127%	121%	117%	101%	106%	105%	117%	118%	111%	120%	116%	124%	114%	106%
COc1ccc(-c2cc3c(C)nc(N)nc3n([C@H]3CC[C@H](OCCO)CC3)c2=O)cn1	103%	107%	103%	85.5%	88.3%	72%	66.2%	66%	63.9%	63.5%	48.2%	98.2%	95.3%	85.9%	78%	70.2%	55.1%	51.4%	44.8%	42.7%	37.9%	35.4%	96.6%	98.2%	85.1%	76%	72.3%	58.7%	55.5%	45.9%	39.3%	38.7%	37.4%
CC(=O)[C@H]1CC[C@H]2[C@@H]3C/C=C4/C[C@@H](O)CC[C@]4(C)[C@H]3CC[C@]12C	120%	124%	114%	116%	112%	120%	124%	115%	114%	114%	110%	–	–	–	–	–	–	–	–	–	–	–	112%	120%	129%	112%	124%	115%	126%	125%	112%	104%	103%
Clc1ccc(C(Cn2ccnc2)OCc2ccc(Sc3ccccc3)cc2)c(Cl)c1 (stereo unspecified)	103%	110%	107%	111%	117%	110%	118%	115%	111%	106%	9.24%	115%	120%	109%	115%	116%	108%	110%	117%	109%	105%	14.3%	111%	102%	111%	107%	107%	104%	105%	101%	102%	101%	19.5%
CC=CC1=C(C(=O)O)N2C(=O)[C@@H](NC(=O)[C@H](N)c3ccc(O)cc3)[C@H]2SC1.O	97.8%	110%	121%	105%	126%	90%	116%	111%	113%	13.8%	15%	88.6%	103%	111%	109%	120%	115%	104%	112%	107%	17.7%	13.7%	100%	108%	107%	113%	118%	109%	110%	116%	114%	45.3%	18.8%
C[C@@H](Oc1ccc2[nH]nc(/C=C/c3cnn(CCO)c3)c2c1)c1c(Cl)cncc1Cl	91.7%	88.7%	93.6%	94.2%	94.2%	86.2%	83.9%	88.3%	86.2%	12.2%	51.3%	85.9%	89.8%	89.4%	94.3%	100%	89.5%	93.9%	89.7%	75.9%	19.3%	38%	78.3%	92.2%	83.8%	90.3%	94.6%	86.1%	76.7%	86.8%	88.6%	23.5%	41.6%
NNC(=O)c1ccncc1	111%	124%	119%	121%	121%	127%	127%	117%	101%	103%	85.7%	106%	107%	111%	124%	111%	114%	122%	120%	116%	107%	84.7%	115%	122%	113%	119%	116%	127%	118%	121%	103%	108%	76.2%
CN(C)c1ccccc1CN1CCCN(Cc2ccccc2N(C)C)C1c1ccncc1	84.7%	94.7%	101%	11.9%	102%	100%	108%	111%	108%	78.3%	94.1%	84%	90.7%	94%	11%	93.7%	99%	108%	105%	103%	102%	80.2%	82.3%	88.5%	82.8%	19.7%	92.9%	91.7%	91.1%	93.4%	101%	100%	71.9%
CN1CCC(=C2c3ccccc3CCc3sccc32)CC1	110%	108%	111%	106%	111%	118%	112%	111%	114%	111%	90.8%	108%	116%	109%	117%	119%	124%	132%	110%	120%	116%	89.7%	101%	107%	113%	104%	109%	108%	115%	114%	115%	107%	82.4%
